{"source": "patent US20070129439A1", "about": "“COMPOSITIONS CONTAINING SUBSTITUTED QUINOLINES AND SUBSTITUTED DIPHENYL SULFONES AND METHODS OF USE” (priority 2003, published 2007)", "tested_on": "neurons", "test": "% neuron loss for test agents in a rat model with Alzheimer's disease (FIG. 1)", "format": "in vivo", "conditions": "rat model with AD", "description": "FIG. 1 is a plot of % neuron loss for several test agents in a rat model with Alzheimer's disease (AD)."}
{"smiles": "CCN(CCO)CCCC(C)Nc1ccnc2cc(Cl)ccc12", "note": "(centres unmarked) [hydroxychloroquine]", "values": [{"measurement": "% neuron loss (killing effect)", "setting": "hydroxychloroquine alone at 6.5 mg/kg", "result": "suppression of the in vitro killing effect"}]}
{"smiles": "Nc1ccc(S(=O)(=O)c2ccc(N)cc2)cc1", "note": "[dapsone, 4,4′-diaminodiphenylsulfone]", "values": [{"measurement": "% neuron loss (killing effect)", "setting": "dapsone alone at 2 mg/kg", "result": "suppression of the in vitro killing effect"}]}
